Twelve molecules from ChEMBL document CHEMBL1201862, “PubChem BioAssay data set” (2004) can be followed below.

Holding throughout (test): inhibition of tumour cell growth, NCI panel, 48 h
Assay [1] concerns 786-0.
In assay [2] the test system is ACHN.
Assay [3] deals with CAKI-1.
The test system of assay [4] is COLO 205.
Assay [5] concerns DU-145.
In assay [6] the test system is Hs-578T.
In assay [7] the test system is KM12.
The subject of assay [8] is LOX IMVI.
The test system of assay [9] is Malme-3M.
The subject of assay [10] is NCI-H23.
The test system of assay [11] is OVCAR-5.
In assay [12] the test system is RPMI-8226.
Assay [13] has as its system SF-539.
Assay [14] has as its system SNB-75.
Assay [15] relates to UACC-257.
Assay [16] has as its system EKVX.
The test system of assay [17] is NCI-H226.
The test system of assay [18] is SK-MEL-2.

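Briefly, cells in 96-well plates were exposed to five compound concentrations for 48 h, and endpoints were estimated by linear interpolation. GI50 = concentration required for 50% inhibition of growth.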 Calls of active or inactive are those of the source. Cut-off read from the data, not from the text of the source: active = GI50 up to about 1.1 µM and inactive = higher.

Take `COc1cc(OC)c(OC)cc1/C=C/c1ccc2ccccc2n1`: the GI50 in [1] was > 10 µM (inactive); in assay [2] it was > 10 µM (inactive); in assay [3], > 10 µM (inactive); in assay [4] it was > 10 µM (inactive); in assay [5], > 10 µM (inactive); in assay [6] it was 3.44 µM (inactive). For the same molecule, the GI50 is 7.85 µM (inactive) in [7]; > 10 µM (inactive) in assay [8]; > 10 µM (inactive) in assay [9]; 2.89 µM (inactive) in assay [10]; > 10 µM (inactive) in assay [11]; 3.66 µM (inactive) in [12]. The GI50 was 3.53 µM (inactive) in [13], 9.71 µM (inactive) in assay [14] and > 10 µM (inactive) in assay [15].

On to `CCOC(=O)[C@H]1O[C@@H]1C(=O)NC(CC(C)C)C(=O)NCCC(C)C` (stereo not given in full), for which the GI50 in assay [1], in [3], in [4], in [5], in assay [16] and in assay [6] was > 100 µM (inactive) in each case. Also, the GI50 in assay [7], in assay [9], in assay [17], in assay [10], in [11] and in [12] was > 100 µM (inactive) each time. Moreover, the GI50 in [13], in assay [14] and in [15] was > 100 µM (inactive) each time.

In the case of `O=C1Nc2ccccc2N/C1=C\C(=O)C(F)F`, the GI50 in assay [1] was > 100 µM (inactive); in [2], > 100 µM (inactive); in [3], > 100 µM (inactive); in assay [4], > 100 µM (inactive); in [5] it was > 100 µM (inactive); in [16], 14.9 µM (inactive). Moreover, the GI50 in assay [6], in [7], in [8], in assay [9], in [17] and in [10] was > 100 µM (inactive) throughout. The GI50 in [11], in [12], in assay [13], in assay [18] and in assay [15] was > 100 µM (inactive) throughout.

For `COc1ccc2c(c1)/C(=C\c1c(C)nc3sc(C)cn13)C(=O)N2`, the GI50 in assay [1] is 2.32 µM (inactive); in [2], 3.83 µM (inactive); in [3] it was 2.13 µM (inactive); in [4], 0.14 µM (active); in assay [5] it was 4.83 µM (inactive); in assay [16] it was 3.24 µM (inactive). The GI50 was 1.22 µM (inactive) in [6]; 0.327 µM (active) in assay [7]; 1.87 µM (inactive) in [8]; 0.172 µM (active) in assay [9]; 0.841 µM (active) in assay [17]; 2.31 µM (inactive) in [10]. In addition, the GI50 in [11] was 3.24 µM (inactive); in assay [12], 0.581 µM (active); in assay [13] it was 0.204 µM (active); in [18], 0.263 µM (active); in assay [15], 1.41 µM (inactive).

As for `CC(C)(C)c1ccc(/C=N/NC(=O)CSCC(=O)N/N=C/c2ccc(C(C)(C)C)cc2)cc1`, the GI50 was 1.95 µM (inactive) in [1]; 2.93 µM (inactive) in [2]; 1.17 µM (inactive) in [4]; 5.83 µM (inactive) in assay [5]; 2.65 µM (inactive) in assay [16]; 3.17 µM (inactive) in assay [6]. Also, the GI50 in [7] was 2.53 µM (inactive); in [9], 9.1 µM (inactive); in [17], 2.09 µM (inactive); in [10], 2.5 µM (inactive); in assay [11], 3.03 µM (inactive); in [12] it was 2.77 µM (inactive). The GI50 is 2.12 µM (inactive) in assay [13], 2.28 µM (inactive) in assay [18], 5.32 µM (inactive) in [14] and 3.02 µM (inactive) in assay [15].

In the case of `NC(=O)c1cccc(OCC(O)CO)c1` (stereo not given), the GI50 in [1], in [2], in assay [3], in [4], in [5] and in [16] was > 100 µM (inactive) in each case. In addition, the GI50 in [6], in [7], in [17], in [10], in assay [11] and in assay [13] was > 100 µM (inactive) each time. Also, the GI50 in [18], in [14] and in assay [15] was > 100 µM (inactive) in each case.

For the molecule `CC(=O)OCOC(=O)CN(CC(=O)OCOC(C)=O)Cc1cc2c(cc1OC(C)=O)Oc1cc(OC(C)=O)c(CN(CC(=O)OCOC(C)=O)CC(=O)OCOC(C)=O)cc1C21OC(=O)c2ccccc21`, the GI50 in assay [1] is 0.346 µM (active); in assay [2] it was 1.38 µM (inactive); in assay [3], 2.34 µM (inactive); in assay [4], 0.594 µM (active); in assay [5] it was 1.47 µM (inactive); in [16], 2.52 µM (inactive). In addition, the GI50 in assay [6] is 0.345 µM (active); in [8] it was 0.299 µM (active); in assay [9], 0.902 µM (active); in assay [17], 1.34 µM (inactive); in assay [10], 0.481 µM (active); in [11], 2.94 µM (inactive). Also, the GI50 in [13] was 0.255 µM (active); in assay [18] it was 0.369 µM (active); in assay [14] it was 1.36 µM (inactive); in [15], 0.344 µM (active).

Turning to `CCNCCNc1c2ccccc2nc2ccccc12`, the GI50 in assay [1] is 0.791 µM (active); in assay [2], 0.366 µM (active); in assay [3] it was 0.698 µM (active); in assay [4], 0.822 µM (active); in [5], 1.62 µM (inactive); in assay [16], 2.44 µM (inactive). Besides, the GI50 in [6] is 1.98 µM (inactive); in assay [7], 1.58 µM (inactive); in assay [8], 0.743 µM (active); in assay [9], 1.7 µM (inactive); in assay [10], 1.26 µM (inactive); in assay [11] it was 1.13 µM (inactive). Besides, the GI50 in [13] was 0.745 µM (active); in assay [18], 1.51 µM (inactive); in assay [14] it was 1.53 µM (inactive); in assay [15], 1.66 µM (inactive).

Consider `c1ccc2c(c1)Nc1cccc3c1c-2nc1cc2ccccc2cc13`, for which the GI50 is 1.72 µM (inactive) in assay [1]; 1.53 µM (inactive) in assay [2]; 1.64 µM (inactive) in [3]; 1.63 µM (inactive) in assay [4]; 1.7 µM (inactive) in assay [5]; 1.55 µM (inactive) in assay [16]. Also, the GI50 in assay [6] was 2.24 µM (inactive); in assay [7] it was 1.62 µM (inactive); in assay [8], 1.55 µM (inactive); in assay [9], 1.69 µM (inactive); in assay [17] it was 1.85 µM (inactive); in assay [10], 1.32 µM (inactive). Moreover, the GI50 was 1.82 µM (inactive) in [11]; 1.8 µM (inactive) in [13]; 1.48 µM (inactive) in [18]; 1.41 µM (inactive) in assay [14]; 1.58 µM (inactive) in [15].

With `COc1ccc2c(c1OC)C(=O)N/C2=C\c1c(CCN(C)C)cc2c(c1OC)OCO2`, the GI50 in assay [1] was > 100 µM (inactive); in [2], > 100 µM (inactive); in [4], 46.2 µM (inactive); in assay [5], > 100 µM (inactive); in [16], > 100 µM (inactive); in assay [6], 13.6 µM (inactive). For the same molecule, the GI50 is > 100 µM (inactive) in assay [7]; 62.8 µM (inactive) in assay [9]; > 100 µM (inactive) in [17]; > 100 µM (inactive) in assay [10]; > 100 µM (inactive) in [11]; > 100 µM (inactive) in assay [12]. Further, the figures for the GI50 in assay [13], in assay [14] and in [15] were > 100 µM (inactive), < 0.01 µM (active) and 51.2 µM (inactive), respectively.

As for `CNc1cc(N)ccc1C(=O)N1CCC[C@H]1CO`, the GI50 in [1], in [2], in assay [5], in assay [16], in [6] and in assay [7] was > 100 µM (inactive) throughout. Moreover, the GI50 in [8] is > 100 µM (inactive); in [17] it was 27.3 µM (inactive); in [11], > 100 µM (inactive); in [12] it was > 100 µM (inactive); in assay [13], > 100 µM (inactive); in assay [18] it was > 100 µM (inactive). Also, the GI50 in assay [14] and in assay [15] was > 100 µM (inactive) each time.

As for `CC(=O)Nc1nc(NC(C)=O)c2nc(CO)[nH]c2n1`, the GI50 in assay [1], in assay [2], in assay [3], in [4], in assay [5] and in assay [16] was > 100 µM (inactive) in each case. Also, the GI50 in assay [6], in assay [7], in assay [8], in [9], in [17] and in [10] was > 100 µM (inactive) throughout. Besides, the GI50 in assay [11], in assay [13], in assay [18], in [14] and in assay [15] was > 100 µM (inactive) throughout.
